We go through nine compounds from patent US20240067651A1 (Biohaven Therapeutics Ltd., priority 2019, published 2024).

SMILES strings stand for the structures.

One data set is described as follows: Plasma Stability. The data set is classed as in vitro ADME, human. The following applies: % remaining at 1 h; human plasma, 1 μM, 37° C. The protocol: Plasma stability estimates the ability of a compound to remain intact in the blood. For prodrugs that are intended to be hydrolyzed by plasma enzymes a certain level of instability in plasma indicates the compound is probably breaking down to the parent drug. A stability range of 25-75% remaining parent compound after 1 hour in plasma indicates the compound is likely breaking down to the parent drug molecule and a patient will be exposed to this parent molecule.
Assessment of plasma stability was carried out by individual incubations of drug candidates in fresh human plasma at a concentration of 1 μM for 1 hour at 37° C. After which, the samples were de-proteinized by addition of 2 volumes of acetonitrile containing 0.1% formic acid and internal standard, vortex mixed for 2 minutes and centrifuged at 4,000 rpm for 10 minutes to pellet precipitated protein. The resulting supernatant containing the drug candidates was diluted 5-fold with water containing 0.1% formic acid and submitted to LCMS/MS analysis. All determinations were done in triplicate. Plasma stability was expressed as percent of control remaining.
See Pelletier et al. ACS Med. Chem. Lett. 2018, 9, 752-756.

A short description of data set [1]: Caco-2 Permeability Assay. The following applies: human. It counts as in vitro ADME, human. The text has this:
The compounds of the invention may be tested for biological activity as MPO inhibitors by methods known to those skilled in the art. In addition, methods such as, for example, a Caco-2 assay, may be used to test the bioavailability of the compounds of the invention. A description of a Caco-2 permeability assay is as follows:
• The Caco-2 monolayer is widely used across the pharmaceutical industry as an in vitro model of the human small intestinal mucosa to predict the absorption of orally administered drugs.^1-4 • The Caco-2 cell model mimics processes such as transcellular transport, paracellular transport, and some aspects of efflux and active transport. • Readout: Papp (A→B), Papp (B→A), Efflux ratio, % Recovery • Controls: with and without Pgp inhibitor; Atenolol, Propanolol, Taxel-1
The Caco-2 cells are cultured to confluency, trypsinized and seeded onto a filter transwell insert at a density of ^˜32,000 cells/well in DMEM cell culture medium. Cells are grown in a humidified atmosphere of 5% CO2 at 37° C. Following an overnight attachment period (24 h after seeding), the cell medium is replaced with fresh medium in both the apical and basolateral compartments every other day. The cell monolayers are used for transport studies 21 days post seeding after measuring the TEER values ([…]). The apical sides and basolateral sides are washed consecutively with HBSS 2.5% (v/v), HEPES (pH 7.4) or HBSS 2.5% (v/v), HEPES 10% (v/v), and Fetal Bovine Serum (pH 7.4) at 37° C. in an incubator under an atmosphere of 5% CO2.
Donor working solution is prepared by dilution of DMSO stock of test article or positive control with transport media to 10 μM.
For A→B directional transport, the donor working solution (with test article or positive control, with or without Pgp inhibitor) is added to the apical (A) compartment and the transport media as receiver working solution is added to the basolateral (B) compartment. For B→A directional transport, the donor working solution (with positive control or test article, with or without Pgp inhibitor) is added to the basolateral (B) compartment and transport media as receiver working solution is added to the apical (A) compartment.
The cells are incubated in a humidified atmosphere of 5% CO2 at 37° C. for 90 minutes.
At the end of the incubation, samples are taken from both donor and receiver compartments and transferred into 96-well assay plates containing internal standard solution (IS) in each well. After centrifugation, the supernatant solutions are transferred to clean 96 well plates and analyzed by LC-MS/MS. The MS detection is performed using a Sciex API 4000 instrument. Each compound is analyzed by reversed phase HPLC.
The parameters Papp (apparent permeability) and efflux ratio are calculated as follows:
Papp=(dQ/dt)×(1/C0)×(1/A)
Efflux ratio=Papp[B→A]/Papp[A→B]
where dQ/dt is the permeability rate, C0 is the initial concentration in the donor compartment, and A is the surface area of the cell monolayer (0.33 cm^2). The Papp value is a rate measured in cm/s. Calculated Papp is ranked as low (<[…]), moderate (1-10×10^−6 cm/s), and high (>[…]).
Comparing the efflux ratios generated in the presence and absence of a Pgp inhibitor identifies whether the test article is a Pgp substrate.
Recovery is calculated as follows:
% Recovery=(Total compound mass in donor and receiver compartments at the end of the incubation/Initial compound mass in the donor compartment)×100.
On the technique in general: Passage across Caco-2 layers is used to estimate intestinal permeability.

The nature of data set [2]: Stability in Simulated Intestinal Fluid (SIF). The data set is classed as in vitro ADME. On the set-up: key: % parent compound remaining relative to 0-minute sample. The following applies: % remaining at 1 h; SIF with pancreatin pH 6.8, 2 μg/mL, 37° C. The protocol:
(§1) Simulated gastric fluid (SGF) and Simulated intestinal fluid (SIF) stability are in vitro metrics indicating the ability of a compound to pass through the gastrointestinal tract […] or completely digested. An undigested or nearly undigested compound will usually survive gut transit long enough to be absorbed into the systemic circulation. Greater than 50% remaining intact compound at 1 hour indicates a relatively stable molecule that will likely be absorbed in the gut.
(§2) For each test compound, samples at a final concentration of 2 μg/mL are prepared in respective blank simulated gastric fluid with pepsin (pH 1.2) and simulated intestinal fluid with pancreatin (pH 6.8). All samples are incubated at 37° C. on a 150-rpm orbital shaker, and an aliquot is removed at predetermined time points (0 to 60 minutes). Samples are precipitated with three volumes of acetonitrile containing propranolol as internal standard, and centrifuged for 10 min at 2,000 g before LC-MS/MS analysis of the supernatant solutions. Percent parent compound remaining is determined relative to 0-minute incubation samples. If a sufficient number of time points are available, the degradation half-life is calculated based on the natural log of % compound remaining vs. time plot.

The nature of data set [3]: Stability in Simulated Gastric Fluid (SGF). It counts as in vitro ADME. As to conditions: % remaining at 1 h; SGF with pepsin pH 1.2, 2 μg/mL, 37° C. The arrangement: key: % parent compound remaining relative to 0-minute sample. The procedure:
as §1, §2

Where [4] appears, read: Caco-2, pH 7.4, donor 10 μM, 90 minutes, 37° C., direction not given.
Where [5] appears, read: Caco-2, pH 7.4, Caco-2 monolayer.

For `CC(C)OCCn1c(=S)[nH]c(=O)c2c1ccn2COC(=O)[C@@H]1CCCN1C(=O)OC(C)(C)C` [Example 1, (S)-tert-Butyl (1,2,3,4-tetrahydro-1-(2-isopropoxyethyl)-4-oxo-2-thioxopyrrolo[3,2-d]pyrimidin-5-yl)methyl pyrrolidine-1,2-dicarboxylate], the “human Plasma stability” value in “Plasma Stability” came out at 92%. Moreover, the Papp (commonly the rate of passage across a membrane or cell layer, normalised by area and donor concentration) at 90 min, 10 µM in data set [1] (setting [4]) worked out at 37.1 ×10⁻⁶ cm/s. Moreover, the SIF in data set [2] is 94%. The SGF in data set [3] was 99%.

`CC(C)OCCn1c(=S)[nH]c(=O)c2c1ccn2COC(=O)[C@@H]1CCC(=O)N1C(=O)OCc1ccccc1` [Example 4, 1-benzyl 2-{4-oxo-1-[2-(propan-2-yloxy)ethyl]-2-sulfanylidene-1H,2H,3H,4H,5H-pyrrolo[3,2-d]pyrimidin-5-yl}methyl (2S)-5-oxopyrrolidine-1,2-dicarboxylate]: the “human Plasma stability” value in “Plasma Stability” is given as 40%. For the same compound, the apparent permeability (Papp) at 90 min, 10 µM in data set [1] (setting [4]) is 13.4 ×10⁻⁶ cm/s. Besides, in data set [2], the SIF is given as 94%. For the same compound, in data set [3], the SGF is given as 97%.

On to `CC(C)OCCn1c(=S)[nH]c(=O)c2c1ccn2COC(=O)CCNC(=O)OC(C)(C)C` [Example 6, {4-Oxo-1-[2-(propan-2-yloxy)ethyl]-2-sulfanylidene-1H,2H,3H,4H,5H-pyrrolo[3,2-d]pyrimidin-5-yl}methyl 3-{[(tert-butoxy)carbonyl]amino}propanoate], for which the “human Plasma stability” value in “Plasma Stability” is 59%. In data set [1] (setting [4]), this compound displayed a Papp at 90 min, 10 µM of 17.9 ×10⁻⁶ cm/s. For the same compound, the SIF in data set [2] is recorded as 67%. Further, in data set [3], the SGF is listed as 82%.

Regarding `CC(C)OCCn1c(=S)[nH]c(=O)c2c1ccn2COC(=O)CCCCNC(=O)OC(C)(C)C` [Example 7, {4-oxo-1-[2-(propan-2-yloxy)ethyl]-2-sulfanylidene-1H,2H,3H,4H,5H-pyrrolo[3,2-d]pyrimidin-5-yl}methyl 5-{[(tert-butoxy)carbonyl]amino}pentanoate], the “human Plasma stability” value in the data set “Plasma Stability” is 4%. Further, the Papp at 90 min, 10 µM in data set [1] (setting [4]) came to 14.7 ×10⁻⁶ cm/s. Further, the SIF in data set [2] is reported as 40%. Further, in data set [3], the SGF is recorded as 66%.

Consider `CC(C)OCCn1c(=S)[nH]c(=O)c2c1ccn2COC(=O)CCN` [Example 8, Trifluoroacetic acid {4-oxo-1-[2-(propan-2-yloxy)ethyl]-2-sulfanylidene-1H,2H,3H,4H,5H-pyrrolo[3,2-d]pyrimidin-5-yl}methyl 3-aminopropanoate], for which the “human Plasma stability” value in the data set “Plasma Stability” is given as 45%. Further, the Papp at 90 min, 10 µM in data set [1] (setting [4]) came out at 0.46 ×10⁻⁶ cm/s. Also, in data set [2], the SIF is listed as 68%. In addition, in data set [3], the SGF is given as 97%.

For `CC(C)OCCn1c(=S)[nH]c(=O)c2c1ccn2COC(=O)CCNC(=O)CNC(=O)OC(C)(C)C` [Example 9, {4-Oxo-1-[2-(propan-2-yloxy)ethyl]-2-sulfanylidene-1H,2H,3H,4H,5H-pyrrolo[3,2-d]pyrimidin-5-yl}methyl 3-(2-{[(tert-butoxy)carbonyl]amino}acetamido)propanoate], in the data set “Plasma Stability”, the “human Plasma stability” value was found to be 52%. Also, the Papp at 90 min, 10 µM in data set [1] (setting [4]) came to 1.53 ×10⁻⁶ cm/s. Also, the SIF in data set [2] was 61%. Also, the SGF in data set [3] is 100%.

Regarding `CC(C)OCCn1c(=S)[nH]c(=O)c2c1ccn2COC(=O)CCCCNC(=O)[C@@H](NC(=O)OC(C)(C)C)C(C)C` [Example 10, {4-oxo-1-[2-(propan-2-yloxy)-ethyl]-2-sulfanylidene-1H,2H,3H,4H,5H-pyrrolo[3,2-d]pyrimidin-5-yl}methyl5-[(2S)-2-{[(tert-butoxy)carbonyl]amino}-3-methylbutanamido]pentanoate], the “human Plasma stability” value in “Plasma Stability” was found to be 72%. Also, in data set [1] (setting [4]), the Papp at 90 min, 10 µM came out at 4.87 ×10⁻⁶ cm/s. For the same compound, in data set [2], the SIF is on record as 76%. In data set [3], the SGF is 81%.

Consider `CC(C)OCCn1c(SCOC(=O)C(C)(C)C)nc(=O)c2c1ccn2COC(=O)C(C)(C)C` [Example 144], for which the Papp at 90 min, 10 µM in data set [1] (setting [5]) amounted to 5.11 ×10⁻⁶ cm/s.

Compound `CC(C)OCCn1c(SCOC(=O)c2ccccc2)nc(=O)c2c1ccn2COC(=O)c1ccccc1.O=C(O)C(F)(F)F` [Example 158] registered a Papp at 90 min, 10 µM in data set [1] (setting [5]) of 5.37 ×10⁻⁶ cm/s.
